Test system: rats rendered diabetic by streptozotocin (sciatic nerve branch to tibialis anterior muscle)
Assay: Motor nerve conduction velocity in streptozotocin-diabetic rats
Format: in vivo, Male Sprague-Dawley rats
Details: lisinopril 0.3 mg/kg/day; for Nerve conduction velocity (mean±SEM): diabetic rats, 6 weeks untreated diabetes then 2 weeks treatment in the drinking water, ZD5522 0.25 mg/kg/day, or both, nondiabetic control 64.4±0.5, untreated diabetic 50.9±0.5; for increase in conduction velocity: single-agent treatment for 2 weeks vs untreated diabetic rats, ZD5522 0.25 mg/kg/day
Experimental: Male Sprague-Dawley rats, 19 weeks old at the start of the study, were divided into non-diabetic animals (normal control group) and animals rendered diabetic by intraperitoneal administration of streptozotocin, (40-45 mg/kg, freshly dissolved in sterile saline). Diabetes was verified 24 hours later by estimating hyperglycemia and glucosuria (Visidex II and Diastix; Ames, Slough, UK). Diabetic rats were tested weekly and weighed daily. […] Samples were taken from the tail vein or carotid artery after final experiments for plasma glucose determination (GOD-Perid method; Boehringer Mannheim, Mannheim, Germany). After 6 weeks of untreated diabetes, groups of rats were treated for a further 2 weeks with lisinopril (0.3 mg/kg/day) or the aldose reductase inhibitor, ZD5522 (0.25 mg/kg/day) or a combination of the two drugs, dissolved in the drinking water.
At the end of the treatment period, rats were anesthetized with thiobutabarbitone by intraperitoneal injection (50-100 mg/kg). The trachea was cannulated for artificial ventilation and a cartoid cannula was used to monitor mean systemic blood pressure. Motor nerve conduction velocity was measured (as previously described by Cameron et al, Diabetologia, 1993, Vol. 36, pages 299-304) between sciatic notch and knee in the nerve branch to tibialis anterior muscle, which is representative of the whole sciatic nerve in terms of susceptibility to diabetes and treatment effects.

SMILES | Nerve conduction velocity (mean±SEM) | increase in conduction velocity
NCCCC[C@H](N[C@@H](CCc1ccccc1)C(=O)O)C(=O)N1CCC[C@H]1C(=O)O [lisinopril] | 53.9±0.6 m/s | ~20%
Cc1ccccc1CC(=O)Nc1cc(C)c(S(=O)(=O)C[N+](=O)[O-])c(C)c1 [ZD5522, 3′,5′-dimethyl-4′-nitromethylsulfonyl-2-(2-tolyl)acetanilide] | 53.7±0.3 m/s | ~20%

— patent US6337327B1, “Pharmaceutical compositions comprising an aldose reductase inhibitor and an ace inhibitor” (Zeneca Limited, priority 1997, dated 2002)
